Source: patent US11214561B2, “Histone methyltransferase EZH2 inhibitor, preparation method and pharmaceutical use thereof” (ANCUREALL PHARMACEUTICAL (SHANGHAI) CO., LTD., priority 2017, dated 2022)

Assay: In vivo pharmacokinetics in rats
Details: SD rats
Protocol: Test Example 4 Study of In Vivo Pharmacokinetics of the Present Compounds in Rats
Male SD rats (Shanghai Sippr-BK Experimental Animal Co., Ltd) were purchased and kept in Shanghai University of Traditional Chinese Medicine animal center (approved by the ethics committee of Shanghai University of Traditional Chinese Medicine) for 7 days. The rats were randomly divided into 4 groups (˜220 g), 3 rats for each group. Animals were administered intravenously (iv) and orally (po). The rats in po group were starved for 12 hours before administration. After administration, blood was collected from the orbital venous plexus at 0 min (before administration), 2 min, 5 min, 15 min, 30 min, 1 h, 2 h, 4 h, 6 h, 8 h and 24 h. About 200 ul of blood was collected at each time point, and were collected in 1.5 ml centrifuge tube containing heparin sodium. The upper blood […] were collected by centrifugation (8000 rpm, 3 min) and stored at −80° C.
Preparation of test samples: 125.0 mg compound 34 or compound 35 was weighed and added with 4 ml ultrapure water, and 25 ul methanesulfonic acid was added with stirring. The mixture was further stirred until clear and transparent (pH ˜3.32). 1 ml of the above solution was added with 4 ml of ultra-pure water to obtain 5 mg/ml of compound 34 or compound 35 solution (pH=3.5).
Dose and mode of administration: single oral dose (100 mpk) and single intravenous dose (5 mpk).
Administration volume: 4 ml/kg (orally), 1 ml/kg (intravenously).
The plasma concentration of the compound was determined by LC-MS/MS (AB scexqtrap@4500 LCMS/MS system). Pharmacokinetic parameters were calculated by WinNonlin (a professional software). The experiment was repeated once.

Question: What does the source list for `C=CC(=O)N1CCC(N(CC)c2cc(-c3ccc(CN4CCCCC4)cc3)cc(C(=O)NCc3c(C)cc(C)[nH]c3=O)c2C)CC1` [Example 34, N-(4,6-dimethyl-2-oxo-1,2-dihydro-pyridin-3-ylmethyl)-5-[(1-acryloyl-piperidin-4-yl)-ethyl-amino]-4-methyl-4′-(piperidin-1-ylmethyl)-[1,1′-biphenyl]-3-carboxamide]?
Answer: bioavailability, in words: good bioavailability; bioavailability (male, rat, plasma, IV 5 mg/kg, PO 100 mg/kg, methanesulfonic acid aqueous solution): 48.8%
